Measurements published in patent publication US6376497B1, “Antifungal azole derivatives having a fluorinated vinyl group and process for preparing same” (Korea Research Institute of Chemical Technology, priority 1999, dated 2002).
In brackets after ≈: the same amount, converted by molar mass.

Key:
Experiment in all cases: In vitro antifungal activity, microbroth dilution MIC
Format in all cases: cell-based
[1] = test system: Candida krusei K. 11655; conditions: 4 to 48 hours; for Minimal inhibitory concentration (MIC): C. krusei K. 11655, RPMI-1640, 35° C.
Experimental: (§1) In vitro antifungal activities of the inventive antifungal compounds were evaluated using the test strains shown in Table VIII by the following microbroth dilution method which is a modified version of the procedure recommended by National Committee for Clinical Laboratory Standards(see National Committee for Clinical Laboratory Standards, 1992, Reference methods for broth dilution antifungal susceptibility testing of yeasts, Proposed standard M27-P, National Committee for clinical laboratory standards, Villanova, Pa; and National Committee for Clinical Laboratory Standards, 1995, Reference methods for broth dilution antifungal susceptibility testing of yeasts. Tentative standard M27-T, National Committee for clinical laboratory standards, Villanova, Pa).
(§2) Sabourad Dextrose Agar(Difco) was used as a culture medium, and RPMI-1640 broth(Sigma. Co. w/L-glutamine, wo/NaHCO3)(0.165 M MOPS, pH 7.0), as a dilution medium.
(§3) Each of the test strains were subcultured in Sabourad Dextrose Agar medium twice and a stain sample was taken from prominent colonies and suspended in sterile physiological saline solution in a cap tube. The turbidity of the suspension was adjusted to that of the Mcfarland 0.5 standard sample(approximately 10^6 CFU/ml). Then the suspension was diluted 500-fold with sterile RPMI-1640 liquid medium to 2×10^3 CFU/ml.
(§4) Each of the test compounds(the compounds obtained in Examples 1 to 150 and comparative compounds, i.e., fluconazole(FCZ) and itraconazole (ICZ)), was dissolved in DMSO to give a stock solution having a concentration of 4000 μg/ml and the stock solution was successively diluted to obtain test solutions having test compound concentrations of 200, 100, 50, 25, 12.5, 6.25, 3.13, 1.56, 0.78, 0.39, 0.20 and 0.10 μg/ml, respectively.
(§5) 0.1 ml portion of the test solutions were added to the wells of a sterile 96 well plate. Then, 0.1 ml portion of each of the test strain solutions were added successively to the wells and the plate was incubated at 35° C. for 4 to 48 hours.
(§6) Minimal inhibitory concentration(MIC) of each compound was defined as the concentration of the test compound where no growth of the strain could be observed.

[2] = test system: Candida albicans A. 10231; conditions: 4 to 48 hours; for Minimal inhibitory concentration (MIC): C. albicans A. 10231, RPMI-1640, 35° C.
Experimental: as §1, §2, §3, §4, §5, §6

[3] = test system: Cryptococcus neoformans IFM. 40092; conditions: for Minimal inhibitory concentration (MIC): Cry. neoformans IFM. 40092, RPMI-1640, 35° C., 4 to 48 hours
Experimental: as §1, §2, §3, §4, §5, §6

[4] = test system: Candida parapsitosis A. 7330; conditions: 4 to 48 hours; for Minimal inhibitory concentration (MIC): C. parapsitosis A. 7330, RPMI-1640, 35° C.
Experimental: as §1, §2, §3, §4, §5, §6

[5] = test system: Cryptococcus neoformans B. 42419; conditions: 4 to 48 hours; for Minimal inhibitory concentration (MIC): Cry. neoformans B. 42419, RPMI-1640, 35° C.
Experimental: as §1, §2, §3, §4, §5, §6

[6] = test system: Cryptococcus neoformans A. 34144; conditions: for Minimal inhibitory concentration (MIC): Cry. neoformans A. 34144, RPMI-1640, 35° C., 4 to 48 hours
Experimental: as §1, §2, §3, §4, §5, §6

[7] = test system: Candida tropicalis A. 13803; conditions: 4 to 48 hours; for Minimal inhibitory concentration (MIC): C. tropicalis A. 13803, RPMI-1640, 35° C.
Experimental: as §1, §2, §3, §4, §5, §6

[8] = test system: Trichophyton mentagrophytes A. 9129; conditions: for Minimal inhibitory concentration (MIC): T. mentagrophytes A. 9129, RPMI-1640, 35° C., 4 to 48 hours
Experimental: as §1, §2, §3, §4, §5, §6

[9] = test system: Trichophyton mentagrophytes B. 32663; conditions: for Minimal inhibitory concentration (MIC): T. mentagrophytes B. 32663, RPMI-1640, 35° C., 4 to 48 hours
Experimental: as §1, §2, §3, §4, §5, §6

[10] = test system: Aspergillus furnigatus B. 19119; conditions: for Minimal inhibitory concentration (MIC): A furnigatus B. 19119, RPMI-1640, 35° C., 4 to 48 hours
Experimental: as §1, §2, §3, §4, §5, §6

[11] = test system: Candida albicans C1-2; conditions: 4 to 48 hours; for Minimal inhibitory concentration (MIC): C. albicans C1-2, RPMI-1640, 35° C.
Experimental: as §1, §2, §3, §4, §5, §6

[12] = test system: Candida pseudotropicalis K. 11658; conditions: 4 to 48 hours; for Minimal inhibitory concentration (MIC): C. pseudotropicalis K. 11658, RPMI-1640, 35° C.
Experimental: as §1, §2, §3, §4, §5, §6

[13] = test system: Aspergillus niger A. 16404; conditions: for Minimal inhibitory concentration (MIC): A. niger A. 16404, RPMI-1640, 35° C., 4 to 48 hours
Experimental: as §1, §2, §3, §4, §5, §6

[14] = test system: Torulopsis glabrata B. 16205; conditions: 4 to 48 hours; for Minimal inhibitory concentration (MIC): T. glabrata B. 16205, RPMI-1640, 35° C.
Experimental: as §1, §2, §3, §4, §5, §6

[15] = test system: Candida albicans IFO. 1385; conditions: 4 to 48 hours; for Minimal inhibitory concentration (MIC): C. albicans IFO. 1385, RPMI-1640, 35° C.
Experimental: as §1, §2, §3, §4, §5, §6

[16] = RPMI-1640, 35° C., no growth observed

Row | SMILES | Minimal inhibitory concentration (MIC) [1] [µg/mL] | Minimal inhibitory concentration (MIC) [2] [µg/mL] | Minimal inhibitory concentration (MIC) [3] [µg/mL] | Minimal inhibitory concentration (MIC) [4] [µg/mL] | Minimal inhibitory concentration (MIC) [5] [µg/mL] | Minimal inhibitory concentration (MIC) [6] [µg/mL] | Minimal inhibitory concentration (MIC) [7] [µg/mL] | Minimal inhibitory concentration (MIC) [8] [µg/mL] | Minimal inhibitory concentration (MIC) [9] [µg/mL] | Minimal inhibitory concentration (MIC) [10] [µg/mL] | Minimal inhibitory concentration (MIC) [11] [µg/mL] | Minimal inhibitory concentration (MIC) [12] [µg/mL] | Minimal inhibitory concentration (MIC) [13] [µg/mL] | Minimal inhibitory concentration (MIC) [14] [µg/mL] | Minimal inhibitory concentration (MIC) [15] [µg/mL] | further results
1 | FC(OCC1COC(Cn2ccnc2)(c2ccc(Cl)cc2Cl)O1)=C(c1cc(Cl)cc(Cl)c1)C(F)(F)F (mixture of isomers) [Ex. 34] | 25.0 | 6.25 | 0.39 | 12.5 | 1.56 | 1.56 | 12.5 | 1.56 | 0.78 | 3.13 | 6.25 | 12.5 | 6.25 | 6.25 | 0.39 | –
2 | FC(=C(c1ccc(C(F)(F)F)cc1)C(F)(F)F)N1CCN(c2ccc(OCC3COC(Cn4ccnc4)(c4ccc(F)cc4F)O3)cc2)CC1 (mixture of isomers) [Ex. 142] | – | – | – | – | – | – | – | – | – | – | – | – | – | – | – | Minimal inhibitory concentration(MIC), C. krusei K. 11655 [1, 16]: 6.25 µg/mL; Minimal inhibitory concentration(MIC), C. albicans A. 10231 [2, 16]: >100 µg/mL; Minimal inhibitory concentration(MIC), Cry. neoformans IFM. 40092 [3, 16]: 0.39 µg/mL; Minimal inhibitory concentration(MIC), C. parapsitosis A. 7330 [4, 16]: 3.13 µg/mL; Minimal inhibitory concentration(MIC), Cry. neoformans B. 42419 [5, 16]: 3.13 µg/mL; Minimal inhibitory concentration(MIC), Cry. neoformans A. 34144 [6, 16]: 3.13 µg/mL; Minimal inhibitory concentration(MIC), C. tropicalis A. 13803 [7, 16]: >100 µg/mL; Minimal inhibitory concentration(MIC), T. mentagrophytes A. 9129 [8, 16]: 12.5 µg/mL; Minimal inhibitory concentration(MIC), T. mentagrophytes B. 32663 [9, 16]: 1.56 µg/mL; Minimal inhibitory concentration(MIC), A furnigatus B. 19119 [10, 16]: 50.0 µg/mL; Minimal inhibitory concentration(MIC), C. albicans C1-2 [11, 16]: >100 µg/mL; Minimal inhibitory concentration(MIC), C. pseudotropicalis K. 11658 [12, 16]: 6.25 µg/mL; Minimal inhibitory concentration(MIC), A. niger A. 16404 [13, 16]: 100 µg/mL; Minimal inhibitory concentration(MIC), T. glabrata B. 16205 [14, 16]: 100 µg/mL; Minimal inhibitory concentration(MIC), C. albicans IFO. 1385 [15, 16]: 3.13 µg/mL
3 | Cc1ccc(C(=C(F)OCC2COC(Cn3ccnc3)(c3ccc(Cl)cc3Cl)O2)C(F)(F)F)cc1C (stereo not drawn) [Ex. 23] | 100 (≈ 183 µM) | 6.25 (≈ 11.5 µM) | 0.39 (≈ 0.715 µM) | >100 | 1.56 (≈ 2.86 µM) | 1.56 (≈ 2.86 µM) | 25.0 (≈ 45.8 µM) | 12.5 (≈ 22.9 µM) | 6.25 (≈ 11.5 µM) | 50.0 (≈ 91.7 µM) | 6.25 (≈ 11.5 µM) | 100 (≈ 183 µM) | 100 (≈ 183 µM) | 12.5 (≈ 22.9 µM) | 0.78 (≈ 1.43 µM) | –
